Legend:
[1] = test system: Mycobacterium Chelonae ATCC 35752; assay: Sterilization test, Mycobacterium chelonae in sterile cups at room temperature (Example 1); type: cell-based; parameters: key: (+) Indicates growth; (−) indicates no growth; details: 10 mM EDC+1 mM Sulfo-NHS
Procedure: (§1) Porcine aortic roots are fixed by cross-linking according to the method described in U.S. Pat. No. 5,447,536. After fixation, the valves are stored in 10 mM HEPES, 0.85% NaCl, 20% isopropyl alcohol, pH 7.4, at 4° C. The sterility tests described in the following examples are in most cases conducted in the presence of bioprosthetic heart valve tissue; when such tissue is not present, the solutions are simply filtered through a 0.45 micron filter attached to a funnel (filter funnel). The filters are then rinsed with peptone water to eliminate residual chemicals on the membrane that may prevent growth of the organisms tested. Such membrane filters are then incubated on TSA plates at about 32° to 33° C., e.g. 32.5° C. When an aortic valve is inoculated with microorganisms for test purposes and then submitted to sterilization, the solution is filtered as described above. The aortic valve tissue is then washed for 20 minutes in a reciprocating shaker in the presence of peptone water containing Tween 80 in order to extract all indigenous spores or microorganisms from the tissue. This solution is filtered and then incubated as described above. All microbiological testing is performed in a biological laminar flow hood to prevent contamination. The shrinkage temperature and the proteolytic (collagenase and protease) degradation tests are conducted as previously described in the '536 patent. Resistance to calcification is assessed by subdermal implantation of sterilized leaflets and aortic wall coupons in young rats, as also described in the '536 U.S. patent.
(§2) Mycobacterium Chelonae ATCC 35752 (˜10^5) was inoculated in sterile cups. A 10 mM HEPES, 0.85% NaCl, pH 6.5 solution containing 10 mM EDC and 1 mM Sulfo-NHS in the presence or absence of 20% isopropyl alcohol was maintained in contact with the bacteria in the cups for various periods of time (treatment duration). The cups were maintained at room temperature, and the solutions were then filtered. The filters were then incubated at about 32-33° C. for up to 6 weeks (incubation duration) using either Trypticase Soy Agar (TSA) plates or Trypticase Soy Broth (TSB). All inoculations were done in duplicate.

[2] = test system: Mycobacterium Chelonae ATCC 35752; assay: as above; type: cell-based; parameters: key: (+) Indicates growth; (−) indicates no growth or complete kill; details: 10 mM EDC+1 mM Sulfo-NHS, 20% isopropyl alcohol
Procedure: as §1, §2

SMILES: CCN=C=NCCCN(C)C.Cl [EDC, 1-ethyl-3(3-dimethylaminopropyl)carbodiimide hydrochloride]
- growth ([1]; 20% isopropyl alcohol, treatment 0 hour, incubation 3 Week, TSA): +,+
- growth ([1]; 20% isopropyl alcohol, treatment 0 hour, incubation 3 Week, TSB): +,+
- growth ([1]; 20% isopropyl alcohol, treatment 0 hour, incubation 4 Week, TSA): +,+
- growth ([1]; 20% isopropyl alcohol, treatment 0 hour, incubation 4 Week, TSB): +,+
- growth ([1]; 20% isopropyl alcohol, treatment 0 hour, incubation 6 Week, TSA): +,+
- growth ([1]; 20% isopropyl alcohol, treatment 0 hour, incubation 6 Week, TSB): +,+
- growth ([1]; no isopropyl alcohol, treatment 0 hour, incubation 1 Day, TSA): +,+
- growth ([1]; no isopropyl alcohol, treatment 0 hour, incubation 1 Day, TSB): +,+
- growth ([1]; no isopropyl alcohol, treatment 0 hour, incubation 1 Week, TSA): +,+
- growth ([1]; no isopropyl alcohol, treatment 0 hour, incubation 1 Week, TSB): +,+
- growth ([1]; no isopropyl alcohol, treatment 0 hour, incubation 3 Week, TSA): +,+
- growth ([1]; no isopropyl alcohol, treatment 0 hour, incubation 3 Week, TSB): +,+
- growth ([1]; no isopropyl alcohol, treatment 0 hour, incubation 4 Week, TSA): +,+
- growth ([1]; no isopropyl alcohol, treatment 0 hour, incubation 4 Week, TSB): +,+
- growth ([1]; no isopropyl alcohol, treatment 0 hour, incubation 6 Week, TSA): +,+
- growth ([1]; no isopropyl alcohol, treatment 0 hour, incubation 6 Week, TSB): +,+
- growth ([1]; no isopropyl alcohol, treatment 12 hours, incubation 1 Day, TSA): +,+
- growth ([1]; no isopropyl alcohol, treatment 12 hours, incubation 1 Day, TSB): +,+
- growth ([1]; no isopropyl alcohol, treatment 12 hours, incubation 1 Week, TSA): +,+
- growth ([1]; no isopropyl alcohol, treatment 12 hours, incubation 1 Week, TSB): +,+
- growth ([1]; no isopropyl alcohol, treatment 12 hours, incubation 3 Week, TSA): +,+
- growth ([1]; no isopropyl alcohol, treatment 12 hours, incubation 3 Week, TSB): +,+
- growth ([1]; no isopropyl alcohol, treatment 12 hours, incubation 4 Week, TSA): +,+
- growth ([1]; no isopropyl alcohol, treatment 12 hours, incubation 4 Week, TSB): +,+
- growth ([1]; no isopropyl alcohol, treatment 12 hours, incubation 6 Week, TSA): +,+
- growth ([1]; no isopropyl alcohol, treatment 12 hours, incubation 6 Week, TSB): +,+
- growth ([1]; no isopropyl alcohol, treatment 24 hours, incubation 1 Day, TSA): −,−
- growth ([1]; no isopropyl alcohol, treatment 24 hours, incubation 1 Day, TSB): −,−
- growth ([1]; no isopropyl alcohol, treatment 24 hours, incubation 1 Week, TSA): +,+
- growth ([1]; no isopropyl alcohol, treatment 24 hours, incubation 1 Week, TSB): +,+
- growth ([1]; no isopropyl alcohol, treatment 24 hours, incubation 3 Week, TSA): +,+
- growth ([1]; no isopropyl alcohol, treatment 24 hours, incubation 3 Week, TSB): +,+
- growth ([1]; no isopropyl alcohol, treatment 24 hours, incubation 4 Week, TSA): +,+
- growth ([1]; no isopropyl alcohol, treatment 24 hours, incubation 4 Week, TSB): +,+
- growth ([1]; no isopropyl alcohol, treatment 24 hours, incubation 6 Week, TSA): +,+
- growth ([1]; no isopropyl alcohol, treatment 24 hours, incubation 6 Week, TSB): +,+
- growth ([1]; no isopropyl alcohol, treatment 48 hours, incubation 1 Day, TSA): −,−
- growth ([1]; no isopropyl alcohol, treatment 48 hours, incubation 1 Day, TSB): −,−
- growth ([1]; no isopropyl alcohol, treatment 48 hours, incubation 1 Week, TSA): −,−
- growth ([1]; no isopropyl alcohol, treatment 48 hours, incubation 1 Week, TSB): −,−
- growth ([1]; no isopropyl alcohol, treatment 48 hours, incubation 3 Week, TSA): −,−
- growth ([1]; no isopropyl alcohol, treatment 48 hours, incubation 3 Week, TSB): −,−
- growth ([1]; no isopropyl alcohol, treatment 48 hours, incubation 4 Week, TSA): −
- growth ([1]; no isopropyl alcohol, treatment 48 hours, incubation 4 Week, TSB): +
- growth ([1]; no isopropyl alcohol, treatment 48 hours, incubation 6 Week, TSA): −
- growth ([1]; no isopropyl alcohol, treatment 48 hours, incubation 6 Week, TSB): +
- growth ([1]; no isopropyl alcohol, treatment 72 hours, incubation 1 Day, TSA): −,−
- growth ([1]; no isopropyl alcohol, treatment 72 hours, incubation 1 Day, TSB): −,−
- growth ([1]; no isopropyl alcohol, treatment 72 hours, incubation 1 Week, TSA): −,−
- growth ([1]; no isopropyl alcohol, treatment 72 hours, incubation 1 Week, TSB): −,−
- growth ([1]; no isopropyl alcohol, treatment 72 hours, incubation 3 Week, TSA): −,−
- growth ([1]; no isopropyl alcohol, treatment 72 hours, incubation 3 Week, TSB): −,−
- growth ([1]; no isopropyl alcohol, treatment 72 hours, incubation 4 Week, TSA): −,−
- growth ([1]; no isopropyl alcohol, treatment 72 hours, incubation 4 Week, TSB): −,−
- growth ([1]; no isopropyl alcohol, treatment 72 hours, incubation 6 Week, TSA): −
- growth ([1]; no isopropyl alcohol, treatment 72 hours, incubation 6 Week, TSB): +
- growth ([2]; treatment 0 hour, incubation 1 Day, TSA): −,−
- growth ([2]; treatment 0 hour, incubation 1 Day, TSB): −,−
- growth ([2]; treatment 0 hour, incubation 1 Week, TSA): −,−
- growth ([2]; treatment 0 hour, incubation 1 Week, TSB): −,−
- growth ([2]; treatment 12 hours, incubation 1 Day, TSA): −,−
- growth ([2]; treatment 12 hours, incubation 1 Day, TSB): −,−
- growth ([2]; treatment 12 hours, incubation 1 Week, TSA): −,−
- growth ([2]; treatment 12 hours, incubation 1 Week, TSB): −,−
- growth ([2]; treatment 12 hours, incubation 3 Week, TSA): −,−
- growth ([2]; treatment 12 hours, incubation 3 Week, TSB): −,−
- growth ([2]; treatment 12 hours, incubation 4 Week, TSA): −,−
- growth ([2]; treatment 12 hours, incubation 4 Week, TSB): −,−
- growth ([2]; treatment 12 hours, incubation 6 Week, TSA): −,−
- growth ([2]; treatment 12 hours, incubation 6 Week, TSB): −,−
- growth ([2]; treatment 24 hours, incubation 1 Day, TSA): −,−
- growth ([2]; treatment 24 hours, incubation 1 Day, TSB): −,−
- growth ([2]; treatment 24 hours, incubation 1 Week, TSA): −,−
- growth ([2]; treatment 24 hours, incubation 1 Week, TSB): −,−
- growth ([2]; treatment 24 hours, incubation 3 Week, TSA): −,−
- growth ([2]; treatment 24 hours, incubation 3 Week, TSB): −,−
- growth ([2]; treatment 24 hours, incubation 4 Week, TSA): −,−
- growth ([2]; treatment 24 hours, incubation 4 Week, TSB): −,−
- growth ([2]; treatment 24 hours, incubation 6 Week, TSA): −,−
- growth ([2]; treatment 24 hours, incubation 6 Week, TSB): −,−
- growth ([2]; treatment 48 hours, incubation 1 Day, TSA): −,−
- growth ([2]; treatment 48 hours, incubation 1 Day, TSB): −,−
- growth ([2]; treatment 48 hours, incubation 1 Week, TSA): −,−
- growth ([2]; treatment 48 hours, incubation 1 Week, TSB): −,−
- growth ([2]; treatment 48 hours, incubation 3 Week, TSA): −,−
- growth ([2]; treatment 48 hours, incubation 3 Week, TSB): −,−
- growth ([2]; treatment 48 hours, incubation 4 Week, TSA): −,−
- growth ([2]; treatment 48 hours, incubation 4 Week, TSB): −,−
- growth ([2]; treatment 48 hours, incubation 6 Week, TSA): −,−
- growth ([2]; treatment 48 hours, incubation 6 Week, TSB): −,−
- growth ([2]; treatment 72 hours, incubation 1 Day, TSA): −,−
- growth ([2]; treatment 72 hours, incubation 1 Day, TSB): −,−
- growth ([2]; treatment 72 hours, incubation 1 Week, TSA): −,−
- growth ([2]; treatment 72 hours, incubation 1 Week, TSB): −,−
- growth ([2]; treatment 72 hours, incubation 3 Week, TSA): −,−
- growth ([2]; treatment 72 hours, incubation 3 Week, TSB): −,−
- growth ([2]; treatment 72 hours, incubation 4 Week, TSA): −,−
- growth ([2]; treatment 72 hours, incubation 4 Week, TSB): −,−
- growth ([2]; treatment 72 hours, incubation 6 Week, TSA): −,−
- growth ([2]; treatment 72 hours, incubation 6 Week, TSB): −,−

Reference: patent US6506339B1, “Method of sterilization” (Biomedical Design, Inc., priority 1997, dated 2003)
